Where “and” joins values, the source holds several entries; their conditions need not be identical. Equal entries are not always repeated.
Key:
[1] = system: Rattus norvegicus; assay: Effect of compound (50 mg/kg) on Blood Ethanol level in Ethanol loaded rats after 1 hr; type: functional
[2] = system: Rattus norvegicus; assay: Effect of compound (50 mg/kg) on Blood Ethanol level in Ethanol loaded rats after 30 minutes; type: functional
[3] = system: Rattus norvegicus; assay: Effect of compound (25 mg/kg) on Blood Ethanol level in Ethanol loaded rats after 2 hr; type: functional
[4] = system: Rattus norvegicus; assay: Effect of compound (25 mg/kg) on Blood Ethanol level in Ethanol loaded rats after 1 hr; type: functional
[5] = system: Rattus norvegicus; assay: Effect of compound (25 mg/kg) on Blood Ethanol level in Ethanol loaded rats after 30 minutes; type: functional
[6] = system: Rattus norvegicus; assay: Effect of compound (50 mg/kg) on Blood Ethanol level in Ethanol loaded rats after 2 hr; type: functional
[7] = system: Rattus norvegicus; assay: Effect of compound (25 mg/kg) on Gastric emptying in Ethanol loaded rats after 30 minutes; type: functional, Stomach
[8] = system: Rattus norvegicus; assay: Effect of compound (25 mg/kg) on Gastric emptying time in Ethanol loaded rats after 30 minutes; type: functional, Stomach
[9] = system: Rattus norvegicus; assay: Effect of compound (25 mg/kg) on Serum glucose level in glucose loaded rats after 2 hr; type: functional, organism-based
[10] = system: Rattus norvegicus; assay: Effect of compound (25 mg/kg) on Serum glucose level in glucose loaded rats after 1 hr; type: functional, organism-based
[11] = system: Rattus norvegicus; assay: Effect of compound (50 mg/kg) on Serum glucose level in glucose loaded rats after 1 hr; type: functional, organism-based
[12] = system: Rattus norvegicus; assay: Effect of compound (25 mg/kg) on Serum glucose level in glucose loaded rats after 30 minutes; type: functional, organism-based
[13] = system: Rattus norvegicus; assay: Effect of compound (50 mg/kg) on Serum glucose level in glucose loaded rats after 2 hr; type: functional, organism-based
[14] = system: Rattus norvegicus; assay: Effect of compound (50 mg/kg) on Gastric emptying in Ethanol loaded rats after 30 minutes; type: functional, Stomach
[15] = system: Rattus norvegicus; assay: Effect of compound (50 mg/kg) on Serum glucose level in glucose loaded rats after 30 minutes; type: functional, organism-based
[16] = system: Rattus norvegicus; assay: Effect of compound (50 mg/kg) on Gastric emptying time in Ethanol loaded rats after 30 minutes; type: functional, Stomach
[17] = system: Rattus norvegicus; assay: Effect of compound (12.5 mg/kg) on Gastric emptying in Ethanol loaded rats after 30 minutes; type: functional, Stomach
[18] = system: Rattus norvegicus; assay: Effect of compound (12.5 mg/kg) on Blood Ethanol level in Ethanol loaded rats after 1 hr; type: functional
[19] = system: Rattus norvegicus; assay: Effect of compound (12.5 mg/kg) on Blood Ethanol level in Ethanol loaded rats after 2 hr; type: functional
[20] = system: Rattus norvegicus; assay: Effect of compound (12.5 mg/kg) on Blood Ethanol level in Ethanol loaded rats after 30 minutes; type: functional

## C=C1CCC[C@]2(C)CC[C@@H](C(C)(C)O)C[C@@H]12 [BETA-EUDESMOL]
[1]
  Activity: 0.73 mg/mL
[2]
  Blood ethanol concentration: 0.77 mg/mL
[3]
  Activity: 0.2 mg/mL
[4]
  Activity: 0.7 mg/mL
[5]
  Blood ethanol concentration: 0.79 mg/mL
[6]
  Blood ethanol level: 0.2 mg/mL

## C=C1C(=O)O[C@@H]2/C=C(\C)CC/C=C(\C)CC[C@@H]12 [COSTUNOLIDE]
[1]
  Activity: 0.21 mg/mL
[7]
  Inhibition: 62.1%
[2]
  Blood ethanol concentration: 0.18 mg/mL
[8]
  Inhibition: 25.5%
[9]
  Serum glucose: 117 mg/dL
[3]
  Activity: 0.1 mg/mL
[10]
  Serum glucose: 151 mg/dL
[4]
  Activity: 0.2 mg/mL
[5]
  Blood ethanol concentration: 0.23 mg/mL
[11]
  Serum glucose: 150 mg/dL
[12]
  Serum glucose: 179 mg/dL
[13]
  Serum glucose: 112 mg/dL
[6]
  Blood ethanol level: 0.19 mg/mL
[14]
  Inhibition: 48.2%
[15]
  Serum glucose: 171 mg/dL
[16]
  Inhibition: 42.1%

## C=C1CC[C@H]2C(=C)CC[C@H]3C(=C)C(=O)O[C@@H]3[C@@H]12 [DEHYDROCOSTUSLACTONE]
[1]
  Activity: 0.23 mg/mL
[2]
  Blood ethanol concentration: 0.2 mg/mL
[3]
  Activity: 0.2 mg/mL
[4]
  Activity: 0.4 mg/mL
[5]
  Blood ethanol concentration: 0.57 mg/mL
[6]
  Blood ethanol level: 0.19 mg/mL

## C=C1C(=O)O[C@@H]2[C@H]3C(C)=CC[C@@H](O)[C@]3(C)CC[C@@H]12 [SANTAMARIN]
[1]
  Activity: 0.21 mg/mL
[2]
  Blood ethanol concentration: 0.2 mg/mL
[3]
  Activity: 0.2 mg/mL
[4]
  Activity: 0.43 mg/mL
[5]
  Blood ethanol concentration: 0.4 mg/mL
[6]
  Blood ethanol level: 0.18 mg/mL

## C=C1CCOC1=O [TULIPALINE A]
[1]
  Activity: 0.1 mg/mL
[7]
  Inhibition: 33.5% and 57.2%
[2]
  Blood ethanol concentration: 0.04 mg/mL
[17]
  Inhibition: 47.9% and 38.8%
[3]
  Activity: 0.01 mg/mL
[4]
  Activity: 0.17 mg/mL
[5]
  Blood ethanol concentration: 0.09 mg/mL
[18]
  Activity: 0.7 mg/mL
[19]
  Activity: 0.39 mg/mL
[6]
  Blood ethanol level: 0.01 mg/mL
[20]
  Activity: 0.32 mg/mL
